Earlier results, collected in patent US8091275B2, “pH buffered plant nutrient compositions and methods for growing plants” (AeroGrow International, priority 2004, dated 2012).

Tested on: plants
Settings: phosphorous maintained at levels adequate to stabilize pH (1 to 10 mM)

phosphorous
toxicity to plants: toxic to plants
